The values that follow come from patent US11149052B2, “2′3′-cyclic dinucleotides” (Institute of Organic Chemistry and Biochemistry, ASCR, V.V.I, priority 2018, dated 2021).

Usually EC50 stands for the concentration at which the effect is half-maximal. As a reminder, the ΔTm is the shift of the melting midpoint relative to a reference.

The target in assay [1] is human wild type STING (WT STING) (Homo sapiens, UniProt Q86WV6, H232R). Description: Digitonin assay using 293T wtSTING-FL reporter cells (ISRE firefly luciferase reporter). The class given is cell-based. The settings on record: 293T wtSTING-FL cells; 30 min in Digitonin buffer, then 5 hours; luciferase read-out; 8-point dose-response curve; read-out: Digitonin assay EC50 (μmol · l^−1) WT STING. The source says: Two complementary oligonucleotides of the sequence […] […] […] […] […] The oligonucleotides were mixed in equal molar amounts, hybridized, and cleaved by restriction endonucleases HindIII (cat. #. R0104S, NEB, Ipswich, USA) and BglII (cat. #R0144S, NEB, Ipswich, USA). Ultimately, they were ligated into plasmid pGL4.27 (cat. #E6651, Promega, Madison, USA) linearized with the same enzymes. As result the sequence with four ISRE sites was placed upstream of the minimum promoter of firefly luciferase reporter gene.
After 5 minutes incubation at room temperature (RT), 250 μL of the mixture was added dropwise to the cells in one well.
Transfected cells were seeded onto poly-D-lysine coated six well plates at density 50,000 cells per 1 cm^2 in DMEM medium with high glucose containing 10% heat inactivated FBS, 30 μg/mL blasticidin (cat. #ant-bl-05, InvivoGen, San Diego, USA), 0.06 mg/ml Penicillin G and 0.1 mg/ml Streptomycin Sulfate (both cat. #. L0018, Biowest, Riverside, USA). The medium was replenished every 3-4 days until visible colonies of cells resistant to blasticidin were formed.
Blasticidin resistant cells stably expressing WT STING were further transfected with […] plasmid following the same procedure as described above. […] Homogeneous culture of stably double transfected cells was prepared by limiting dilution of cells in 96 well plates and wells with cells were selected that originated from a single cell.
The medium was removed next day and three fold serial dilutions of compounds in Digitonin buffer containing 50 mmol·l^−1 HEPES (cat. #H3375, Sigma Aldrich, Czech Republic) pH 7.0, 100 mmol·l^−1 KCl, 3 mmol·l^−1 MgCl2, 0.1 mmol·l^−1 DTT (cat. #D0632, Sigma Aldrich, Czech Republic), 85 mmol·l^−1 Sucrose (cat. #S7903, Sigma Aldrich, Czech Republic), 0.2% BSA (cat. #A2153, Sigma Aldrich, Czech Republic), 1 mmol·l^−1 ATP (cat. #A1852, Sigma Aldrich, Czech Republic), 0.1 mmol·l^−1 GTP (cat. #G8877, Sigma Aldrich, Czech Republic), and 10 μg/mL Digitonin A (cat. #D141, Sigma Aldrich, Czech Republic) were added to the cells. The buffer was removed after 30 minutes incubation at 37° C. with 5% CO2, the cells were washed once with 100 μl of cultivation medium, and 100 IA of medium was added to each well. The plates with cells were incubated for 5 hours at 37° C. with 5% CO2, 50 μl of the medium was removed and 30 μl of ONE-Glo™ Luciferase Assay System reagent (cat. #E6120, Promega, Madison, USA) was added to each well. Luminesce was read on Synergy H1 (Biotek, Winooski, USA).
In general terms: In a reporter assay the amount or activity of a reporter protein is the signal.

The target in assay [2] is T1, WT STING (truncated human WT STING protein) (Homo sapiens, UniProt Q86WV6, H232R).
T1 construct: truncated human WT STING or AQ STING (amino acid residues 140-343); 8xHis (N, cleaved yes); SUMO (N, cleaved yes); made in house; host or cells: E. coli Rosetta-gami B (DE3)
The experiment in a line: Differential Scanning Fluorimetry with WT STING. The class given is binding. Particulars: thermal shift vs apoprotein, 150 μM CDN, 0.1 mg/ml STING protein, SYPRO Orange; for ΔTm at 150 µM: read-out: DSF ΔTm (° C.) WT STING. How it is done: (§1) Purified PCR products were cleaved with restriction enzymes BamHI (cat. #R0136S, NEB, Ipswich, USA) and NotI (cat. #R0189S, NEB, Ipswich, USA) and cloned into the pSUMO vector linearized with the identical enzymes.
(§2) DNase I (cat. #D5025, Sigma Aldrich, Czech Republic) and RNase A (cat. #R6513, Sigma Aldrich, Czech Republic) were added (final concentration […]) together with MgCl2 (final concentration 5 mmol·l^−1) to the homogenate and bacteria were lysed using French Press G-M™ High-Pressure Cell Press Homogenizer (1500 psi, 3 cycles). […] The resin was poured into a chromatography column, washed with 50 ml buffer A (50 mmol·l^−1 TrisCl (pH 8.0), 800 mmol·l^−1 NaCl, 3 mmol·l^−1β-mercaptoethanol; 10% glycerol; 20 mmol·l^−1 imidazole) and 8-His-SUMO tagged STING proteins were eluted with 15 ml buffer A containing 300 mmol·l^−1 imidazole. […] Proteins were concentrated with Amicon® Ultra-15 10 K device (cat. #UFC901008, Merck Millipore, Billerica, USA) and flash frozen in liquid N2.
(§3) Differential Scanning Fluorimetry with WT STING and AQ STING
(§4) 20 μL solutions of the reaction mixtures were pipetted in triplicates into 96 well optical reaction plates and thermal denaturation of samples were performed on real time PCR cycler (LightCycler® 480 Instrument II—Roche, Base^1, Switzerland). The first derivative of the thermal denaturation curves was performed to calculate denaturing temperatures of STING-CDN complexes and STING apoproteins. The thermal shift for each CDN was calculated by subtracting the average denaturing temperature of STING apoprotein from the average denaturing temperature of STING CDN complex.

The target of assay [3] is T2, AQ STING (truncated human STING G230A-R293Q allelic form) (Homo sapiens, UniProt Q86WV6, G230A/H232R/R293Q).
T2 construct: truncated human WT STING or AQ STING (amino acid residues 140-343); 8xHis (N, cleaved yes); SUMO (N, cleaved yes); made in house; host or cells: E. coli Rosetta-gami B (DE3)
Description: Differential Scanning Fluorimetry with AQ STING. The class given is binding. Particulars: thermal shift vs apoprotein, 150 μM CDN, 0.1 mg/ml STING protein, SYPRO Orange; for ΔTm at 150 µM: read-out: DSF ΔTm (° C.) AQ STING. How it is done:
as §1, §2, §3, §4

T2 sequence (Q86WV6 140-343 G230A/H232R/R293Q): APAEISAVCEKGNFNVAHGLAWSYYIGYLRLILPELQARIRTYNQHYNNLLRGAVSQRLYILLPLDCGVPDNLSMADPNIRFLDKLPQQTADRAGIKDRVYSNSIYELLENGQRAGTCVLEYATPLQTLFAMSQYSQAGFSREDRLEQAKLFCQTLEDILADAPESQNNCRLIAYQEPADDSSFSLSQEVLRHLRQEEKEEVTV
T1 sequence (Q86WV6 140-343 H232R): as the sequence (Q86WV6 140-343 G230A/H232R/R293Q) above, with A91G, Q154R counted along it
human wild type STING (WT STING), sequence (Q86WV6 whole entry H232R): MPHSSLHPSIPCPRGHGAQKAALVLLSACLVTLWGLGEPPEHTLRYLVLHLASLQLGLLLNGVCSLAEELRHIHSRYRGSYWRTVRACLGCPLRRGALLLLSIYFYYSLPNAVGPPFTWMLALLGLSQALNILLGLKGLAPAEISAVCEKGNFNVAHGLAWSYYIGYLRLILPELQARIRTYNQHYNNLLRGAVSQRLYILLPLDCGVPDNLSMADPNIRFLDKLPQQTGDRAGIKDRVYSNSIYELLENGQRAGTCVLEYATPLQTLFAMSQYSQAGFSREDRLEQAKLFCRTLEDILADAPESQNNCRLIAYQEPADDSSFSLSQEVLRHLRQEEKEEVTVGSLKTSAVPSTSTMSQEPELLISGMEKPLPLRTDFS

In the case of `Nc1ncnc2c1ncn2[C@@H]1O[C@@H]2COP(=O)(O)O[C@@H]3[C@H](F)[C@@H](COP(=O)(O)CO[C@H]2[C@H]1F)O[C@H]3n1cnc2c(N)ncnc21` [Example 22, (1S,6R,8R,9R,10R,16R,18R,19R)-8,18-bis(6-amino-9H-purin-9-yl)-9,19-difluoro-3,13-dihydroxy-2,4,7,11,14,17-hexaoxa-3λ^5,13λ^5-diphosphatricyclo[14.2.1.0^6,^10]nonadecane-3,13-dione], the half-maximal effective concentration (EC50) in assay [1] was 15 nM. Moreover, the ΔTm at 150 µM is 9 °C in assay [2] and 11.1 °C in assay [3].

`Nc1nc2c(ncn2[C@@H]2O[C@@H]3COP(=O)(O)CO[C@H]4C[C@H](n5cnc6c(N)ncnc65)O[C@@H]4COP(=O)(O)O[C@@H]2[C@@H]3F)c(=O)[nH]1` [Example 20, (1S,6R,8R,10S,16R,18R,19R)-18-(2-amino-6-oxo-6,9-dihydro-1H-purin-9-yl)-8-(6-amino-9H-purin-9-yl)-19-fluoro-3,13-dihydroxy-2,4,7,11,14,17-hexaoxa-3λ^5,13λ^5-diphosphatricyclo[14.2.1.0^6,^10]nonadecane-3,13-dione]: the EC50 in assay [1] came to 5 nM. Moreover, the ΔTm at 150 µM in assay [2] was found to be 17.2 °C; in assay [3] it was 23.5 °C.

As for `Nc1ncnc2c1ncn2[C@@H]1O[C@@H]2COP(=O)(O)O[C@@H]3[C@H](O)[C@@H](COP(=O)(O)CO[C@H]2[C@@H]1O)O[C@H]3n1cnc2c(N)ncnc21` [Example 11, (1R,6R,8R,9S,10S,16R,18R,19R)-8,18-bis(6-amino-9H-purin-9-yl)-3,9,13,19-tetrahydroxy-2,4,7,11,14,17-hexaoxa-3λ^5,13λ^5-diphosphatricyclo[14.2.1.0^6,^10]nonadecane-3,13-dione], the concentration giving a half-maximal response (EC50) in assay [1] came out at 2500 nM. Further, the figures for the ΔTm at 150 µM in assay [2] and in assay [3] were 2.3 °C and 9.1 °C, respectively.

Take `Nc1nc2c(ncn2[C@@H]2O[C@@H]3COP(=O)(O)CO[C@H]4[C@@H](F)[C@H](n5cnc6c(N)ncnc65)O[C@@H]4COP(=O)(O)O[C@@H]2[C@@H]3F)c(=O)[nH]1` [Example 17, (1S,6R,8R,9R,10R,16R,18R,19R)-18-(2-amino-6-oxo-6,9-dihydro-1H-purin-9-yl)-8-(6-amino-9H-purin-9-yl)-9,19-difluoro-3,13-dihydroxy-2,4,7,11,14,17-hexaoxa-3λ^5,13λ^5-diphosphatricyclo[14.2.1.0^6,^10]nonadecane-3,13-dione]: in assay [1], the EC50 was 20 nM. Also, the ΔTm at 150 µM in assay [2] was 21.7 °C; in assay [3] it was 27.3 °C.

For the compound `Nc1ncnc2c1ncn2[C@@H]1O[C@@H]2COP(=O)(O)O[C@H]3[C@@H](O)[C@H](n4cnc5c(N)ncnc54)O[C@@H]3COP(=O)(O)O[C@H]2[C@H]1O` [3′3′-c-di-AMP, reference compound], in assay [1], the EC50 came to 300 nM. In addition, the “DSF ΔTm (° C.) WT STING” value in assay [2] is 2.6 °C. The “DSF ΔTm (° C.) AQ STING” value in assay [3] came to 9.3 °C.

For `Nc1nc2c(ncn2[C@@H]2O[C@@H]3COP(=O)(O)O[C@@H]4[C@H](O)[C@@H](COP(=O)(O)CO[C@H]3[C@H]2O)O[C@H]4n2cnc3c(N)ncnc32)c(=O)[nH]1` [Example 2, (1R,6R,8R,9R,10S,16R,18R,19R)-8-(2-amino-6-oxo-6,9-dihydro-1H-purin-9-yl)-18-(6-amino-9H-purin-9-yl)-3,9,13,19-tetrahydroxy-2,4,7,11,14,17-hexaoxa-3λ^5,13λ^5-diphosphatricyclo[14.2.1.0^6,^10]nonadecane-3,13-dione], the EC50 in assay [1] was 1200 nM. Also, the results for the ΔTm at 150 µM in assay [2] and in assay [3] were 1.4 °C and 8.8 °C, respectively.

Take `Nc1nc2c(ncn2[C@@H]2O[C@@H]3COP(=O)(O)CO[C@@H]4[C@H](O)[C@@H](COP(=O)(O)O[C@H]3[C@H]2O)O[C@H]4n2cnc3c(N)ncnc32)c(=O)[nH]1` [Example 6, (1R,6S,7R,8R,10R,16R,17R,19R)-8-(2-amino-6-oxo-6,9-dihydro-1H-purin-9-yl)-17-(6-amino-9H-purin-9-yl)-4,7,13,19-tetrahydroxy-3,5,9,12,15,18-hexaoxa-4λ^5,13λ^5-diphosphatricyclo[14.2.1.0^6,^10]nonadecane-4,13-dione]: the EC50 in assay [1] is > 50000 nM. Also, the ΔTm at 150 µM is 0.1 °C in assay [2] and 1.2 °C in assay [3].

Take `Nc1nc2c(ncn2[C@@H]2O[C@@H]3COP(=O)(O)CO[C@H]4[C@@H](O)[C@H](n5cnc6c(N)ncnc65)O[C@@H]4COP(=O)(O)O[C@@H]2[C@@H]3O)c(=O)[nH]1` [Example 5, (1R,6R,8R,9R,10S,16R,18R,19R)-18-(2-amino-6-oxo-6,9-dihydro-1H-purin-9-yl)-8-(6-amino-9H-purin-9-yl)-3,9,13,19-tetrahydroxy-2,4,7,11,14,17-hexaoxa-3λ^5,13λ^5-diphosphatricyclo[14.2.1.0^6,^10]nonadecane-3,13-dione]: the EC50 in assay [1] is 14 nM. For the same compound, the shift in melting temperature (ΔTm) at 150 µM in assay [2] was 16.7 °C; in assay [3], 23.2 °C.

As to `Nc1nc2c(ncn2[C@@H]2O[C@@H]3COP(=O)(O)O[C@H]4[C@@H](O)[C@H](n5cnc6c(N)ncnc65)O[C@@H]4COP(=O)(O)CO[C@@H]2[C@@H]3O)c(=O)[nH]1` [Example 3, (1R,6S,7R,8R,10R,16R,17R,19R)-17-(2-amino-6-oxo-6,9-dihydro-1H-purin-9-yl)-8-(6-amino-9H-purin-9-yl)-4,7,13,19-tetrahydroxy-3,5,9,12,15,18-hexaoxa-4λ^5,13λ^5-diphosphatricyclo[14.2.1.0^6,^10]nonadecane-4,13-dione], the concentration giving a half-maximal response (EC50) in assay [1] is 3000 nM. For the same compound, the ΔTm at 150 µM was found to be 0.8 °C in assay [2] and 7.2 °C in assay [3].

Take `Nc1nc(N)c2ncn([C@@H]3O[C@@H]4COP(=O)(O)O[C@@H]5[C@H](O)[C@@H](COP(=O)(O)CO[C@H]4[C@H]3F)O[C@H]5n3cnc4c(N)ncnc43)c2n1` [Example 26, (1R,6R,8R,9R,10R,16R,18R,19R)-18-(6-amino-9H-purin-9-yl)-8-(2,6-diamino-9H-purin-9-yl)-9-fluoro-3,13,19-trihydroxy-2,4,7,11,14,17-hexaoxa-3λ^5,13λ^5-diphosphatricyclo[14.2.1.0^6,^10]nonadecane-3,13-dione]: the 50% effective concentration (EC50) in assay [1] is 580 nM. Moreover, the ΔTm at 150 µM in assay [2] amounted to 2.1 °C; in assay [3] it was 7.5 °C.
